Data: patent US20110097426A1, “Methods for Safe and Effective Treatment Using Oxazaphosphorine Drugs” (Accentia Biopharmaceuticals, Inc., priority 2007, published 2011)
Where two headings read alike, the source gives them in different places.

What was measured:
[1] = tested on: white blood cell (WBC) count
Experimental: Nine patients were treated 50 mg/kg/day cyclophosphamide intravenously for four days (on Day-3 to Day 0).
On Day 6, (six days after completion of high-dose cyclophosphamide treatment), patients received G-CSF.

[2] = tested on: patients with aggressive relapsing-remitting multiple sclerosis
Source text: All 9 patients had aggressive relapsing-remitting multiple sclerosis, 8 of whom failed conventional therapy and 1 was untreated. Median age at time of entry was 29 years (range of 20 to 47 years). The mean number of gadolinium enhancing lesions on baseline MRI was 6.5 (range 3-11).

O=P1(N(CCCl)CCCl)NCCCO1 (stereo not shown) [cyclophosphamide]
minimum WBC ([1]; patient HiCy01): 70
minimum WBC ([1]; patient HiCy07): 6
minimum WBC count ([1]; patient HiCy11): 24
minimum WBC ([1]; patient HiCy14): 31
minimum WBC count ([1]; patient HiCy19): 50
WBC count ([1]; patients HiCy05 and HiCy13, within two weeks of treatment): 0
minimum WBC count ([1]; patients HiCy09 and HiCy15 (both)): 12
reduction in disability (EDSS) ([2]; 50 mg/kg/day i.v. for four days, 9 patients): 50%
reduction in gadolinium enhancements ([2]; at 6 months, 50 mg/kg/day i.v. for four days, 9 patients): 90%
reduction in gadolinium enhancements ([2]; by 18 months, 50 mg/kg/day i.v. for four days, 9 patients): 94%
adverse outcomes ([2]; initial cohort of 9 patients with severe relapsing MS): no significant adverse outcomes
patients having no disability (EDSS score of 0) ([2]; of 9 patients): 3 patients
patients with EDSS score of 1 ([2]; of 9 patients): 1 patient
patients with an exacerbation during follow-up ([2]; of 9 patients, started on conventional MS therapy at 18 months): one
gadolinium enhancing lesions (GEL) at subsequent follow-up visits ([2]; patient HiCy01): did not have any GEL
gadolinium enhancing lesions (GEL) at follow-up ([2]; patients HiCy05 and HiCy13, up to 24 months follow-up): no gadolinium enhancing lesions
gadolinium enhancing lesions (GEL) on follow-up MRIs ([2]; patients HiCy07 and HiCy14, who first went to 0 GEL): a single GEL
gadolinium enhancing lesions (GEL) ([2]; patients HiCy09 and HiCy15): 0
gadolinium enhancing lesions (GEL) at follow-up ([2]; patients HiCy11 and HiCy19 (HiCy19 only 6 months of follow-up)): always had GEL on every follow up
